What was measured:
PTGER2 (EP2) = PTGER2 (EP2) (Homo sapiens (Human), UniProt P43116); experiment: hEP2 b-arrestin assay (PathHunter HEK 293 PTGER2 b-arrestin cells); type: cell-based
Excerpt: (§1) The assay is using the PathHunter™ HEK 293 PTGER2 and PTGER4 b-arrestin cell lines from DiscoverX. The system is based on the Enzyme Fragment Complementation Technology. Two complementing fragments of the b-galactosidase enzyme are expressed within stably transfected cells. The larger portion of b-gal, termed EA for Enzyme Acceptor, is fused to the C-terminus of b-arrestin 2. The smaller fragment, termed ProLink™ tag, is fused to PTGER2 (EP2) or PTRGER4 (EP4) at the C-terminus. Upon activation, b-arrestin is recruited which forces the interaction of ProLink and EA, allowing complementation of the two fragments of b-gal and the formation of a functional enzyme which is capable of hydrolysing the substrate and generating a chemiluminescent signal.
(§2) 5000 cells per well of a 384 well plate (white with white bottom Greiner 781080) are seeded in 20 ul per well of GM. Plate is incubated at 37° C., 5% C02 for 24 hours.
Plate is pre-incubated 15 minutes at 37° C. Then five microliters of PGE2 (final conc. 5 μM) are transferred into the assay plate. Plate is incubated 120 minutes at 37° C.
(§3) Twelve μl of reagent are transferred to the assay plate and incubate for 1 hour at room temperature in the dark. Luminescence counts are read on a BMG Fluostar Optima reader according to manufacturer's instructions. For each compound concentration calculate of the percentage of activity compared to DMSO control value as average±STDEV. (each concentration is measured in duplicate)

PTRGER4 (EP4) = PTRGER4 (EP4) (Homo sapiens (Human), UniProt P35408); experiment: hEP4 b-arrestin assay (PathHunter HEK 293 PTGER4 b-arrestin cells); type: cell-based
Excerpt: as §1, §2
Plate is pre-incubated 15 minutes at 37° C. Then five microliters of PGE2 (final conc. 20 nM) are transferred into the assay plate. Plate is incubated 120 minutes at 37° C.
as §3, with “average±STDEV.” for “average±STDEV. (each concentration is measured in duplicate)”

[1] = hEP2 b-arrestin assay (values without asterisk)
[2] = hEP4 b-arrestin assay (values without asterisk)
[3] = antagonistic activity on hEP2, mean where measured multiple times
[4] = antagonistic activity on hEP4, mean where measured multiple times

PTGER2 (EP2), sequence (P43116 whole entry, the tested form may be a part): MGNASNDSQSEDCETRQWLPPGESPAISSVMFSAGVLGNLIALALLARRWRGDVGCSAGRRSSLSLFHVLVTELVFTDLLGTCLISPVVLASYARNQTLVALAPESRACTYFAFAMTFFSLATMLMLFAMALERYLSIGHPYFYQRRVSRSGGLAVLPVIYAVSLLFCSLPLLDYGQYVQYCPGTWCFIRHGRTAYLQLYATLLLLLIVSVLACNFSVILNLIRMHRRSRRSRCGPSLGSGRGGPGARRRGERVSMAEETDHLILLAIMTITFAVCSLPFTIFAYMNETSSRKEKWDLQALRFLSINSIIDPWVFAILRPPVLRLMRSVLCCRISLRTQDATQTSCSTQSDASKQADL
PTRGER4 (EP4), sequence (P35408 whole entry, looked up): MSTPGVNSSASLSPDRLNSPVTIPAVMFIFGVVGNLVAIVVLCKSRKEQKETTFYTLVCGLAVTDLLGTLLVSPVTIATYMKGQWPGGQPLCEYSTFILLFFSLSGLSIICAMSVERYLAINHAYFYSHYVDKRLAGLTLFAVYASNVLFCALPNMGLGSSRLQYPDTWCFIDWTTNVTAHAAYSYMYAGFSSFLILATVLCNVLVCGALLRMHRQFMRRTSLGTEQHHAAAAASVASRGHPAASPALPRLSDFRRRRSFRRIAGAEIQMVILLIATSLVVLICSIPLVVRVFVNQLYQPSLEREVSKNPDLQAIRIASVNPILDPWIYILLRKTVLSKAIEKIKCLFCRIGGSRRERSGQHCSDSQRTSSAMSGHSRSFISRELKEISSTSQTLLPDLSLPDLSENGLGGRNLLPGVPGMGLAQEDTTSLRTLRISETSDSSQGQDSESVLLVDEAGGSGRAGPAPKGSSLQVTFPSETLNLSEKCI

Row | Compound | IC50 (PTGER2 (EP2); [1]) [nM] | IC50 (PTRGER4 (EP4); [2]) [nM] | IC50 (PTGER2 (EP2); [3]) [nM] | IC50 (PTRGER4 (EP4); [4]) [nM]
1 | 4-{6-[2-(2-Cyano-7-fluoro-4-methoxy-indol-1-yl)-ethylamino]-pyrimidin-4-yl}-phthalic acid 2-ethyl ester [Example 965] | 53 | 43 | – | –
2 | 5-{6-[2-(6-Fluoro-4-methoxy-2-methyl-indol-1-yl)-ethylamino]-pyrimidin-4-yl}-thiophen-3-ol [Example 801] | 20 | 139 | – | –
3 | CCOc1cc(-c2cc(NCC(C)n3c(C)cc4c(OC)ccc(F)c43)ncn2)sc1C(=O)O (racemic) [Example 796, rac-3-Ethoxy-5-{6-[2-(7-fluoro-4-methoxy-2-methyl-indol-1-yl)-propylamino]-pyrimidin-4-yl}-thiophene-2-carboxylic acid] | 48 | 131 | – | –
4 | CCOc1cc(-c2cc(NC(C)Cn3c(C)cc4c(OC)ccc(F)c43)ncn2)sc1C(=O)O (racemic) [Example 797, rac-3-Ethoxy-5-{6-[2-(7-fluoro-4-methoxy-2-methyl-indol-1-yl)-1-methyl-ethylamino]-pyrimidin-4-yl}-thiophene-2-carboxylic acid] | 33 | 64 | – | –
5 | CCOc1cc(-c2cc(NCCn3c(C)cc4c(OC)ccc(F)c43)ncn2)ccc1NC(C)C(=O)O (racemic) [Example 839, rac-2-(2-Ethoxy-4-{6-[2-(7-fluoro-4-methoxy-2-methyl-indol-1-yl)-ethylamino]-pyrimidin-4-yl}-phenylamino)-propionic acid] | 3 | 44 | – | –
6 | CCOc1cc(-c2cc(NCCn3c(C)cc4c(OC)ccc(F)c43)ncn2)ccc1OC(C)C(=O)O (racemic) [Example 843, rac-2-(2-Ethoxy-4-{6-[2-(7-fluoro-4-methoxy-2-methyl-indol-1-yl)-ethylamino]-pyrimidin-4-yl}-phenoxy)-propionic acid] | 11 | 111 | – | –
7 | COc1ccc(F)c2c1cc(C#N)n2CCNc1cc(-c2ccc(C(O)CO)cc2)ncn1 (racemic) [Example 862, rac-1-(2-{6-[4-(1,2-Dihydroxy-ethyl)-phenyl]-pyrimidin-4-ylamino}-ethyl)-7-fluoro-4-methoxy-1H-indole-2-carbonitrile] | 90 | 194 | – | –
8 | COc1cccc2c1cc(C)n2CCNc1cc(-c2ccc3c(c2)C(C)NC3=O)ncn1 (racemic) [compound 86] | – | – | 12 | 873
9 | Cc1ccc(F)c2c1cc(C)n2CCNc1cc(-c2ccc3c(c2)C(C)NC3=O)ncn1 (racemic) [compound 96] | – | – | 17 | 572
10 | CCC1NC(=O)c2ccc(-c3cc(NCCn4c(C)cc5c(OC)cccc54)ncn3)cc21 (racemic) [compound 196] | – | – | 12 | 224
11 | COc1ccc(F)c2c1cc(C)n2CCNc1cc(-c2ccc3c(c2)C(C)NC3=O)ncn1 (racemic) [compound 203] | – | – | 14 | 324
12 | CCC1NC(=O)c2ccc(-c3cc(NCCn4c(C)cc5c(C)ccc(F)c54)ncn3)cc21 (racemic) [compound 207] | – | – | 19 | 645
13 | CCCC1NC(=O)c2ccc(-c3cc(NCCn4c(C)cc5c(OC)cccc54)ncn3)cc21 (racemic) [compound 314] | – | – | 15 | 303
14 | CCC1NC(=O)c2ccc(-c3cc(NCCn4c(C)cc5c(OC)ccc(F)c54)ncn3)cc21 (racemic) [compound 319] | – | – | 10 | 296
15 | CCCC1NC(=O)c2ccc(-c3cc(NCCn4c(C)cc5c(C)ccc(F)c54)ncn3)cc21 (racemic) [compound 322] | – | – | 55 | 295
16 | CCC(C)c1cc(-c2cc(NCCn3c(C)cc4c(C)ccc(F)c43)ncn2)ccc1C(=O)O (racemic) [compound 337] | – | – | 89 | 308
17 | COc1ccc(F)c2c1cc(C)n2CCNc1cc(-c2ccc(N)cc2)ncn1 [Example 4, [6-(4-amino-phenyl)-pyrimidin-4-yl]-[2-(7-fluoro-4-methoxy-2-methyl-indol-1-yl)-ethyl]-amine] | – | – | 22 | 412

— patent US12011444B2, “N-substituted indole derivatives as PGE2 receptor modulators” (Idorsia Pharmaceuticals Ltd, priority 2015, dated 2024)
